Here are results for three molecules from PMC7591906, “pHLIP ICG for delineation of tumors and blood flow during fluorescence-guided surgery” (Scientific Reports, 2020).

For data set [1], the target named is T1, progesterone receptor B (Homo sapiens, UniProt P06401).
T1 construct: purchased Eurofins Panlabs, Inc
T1 sequence (P06401 1-933): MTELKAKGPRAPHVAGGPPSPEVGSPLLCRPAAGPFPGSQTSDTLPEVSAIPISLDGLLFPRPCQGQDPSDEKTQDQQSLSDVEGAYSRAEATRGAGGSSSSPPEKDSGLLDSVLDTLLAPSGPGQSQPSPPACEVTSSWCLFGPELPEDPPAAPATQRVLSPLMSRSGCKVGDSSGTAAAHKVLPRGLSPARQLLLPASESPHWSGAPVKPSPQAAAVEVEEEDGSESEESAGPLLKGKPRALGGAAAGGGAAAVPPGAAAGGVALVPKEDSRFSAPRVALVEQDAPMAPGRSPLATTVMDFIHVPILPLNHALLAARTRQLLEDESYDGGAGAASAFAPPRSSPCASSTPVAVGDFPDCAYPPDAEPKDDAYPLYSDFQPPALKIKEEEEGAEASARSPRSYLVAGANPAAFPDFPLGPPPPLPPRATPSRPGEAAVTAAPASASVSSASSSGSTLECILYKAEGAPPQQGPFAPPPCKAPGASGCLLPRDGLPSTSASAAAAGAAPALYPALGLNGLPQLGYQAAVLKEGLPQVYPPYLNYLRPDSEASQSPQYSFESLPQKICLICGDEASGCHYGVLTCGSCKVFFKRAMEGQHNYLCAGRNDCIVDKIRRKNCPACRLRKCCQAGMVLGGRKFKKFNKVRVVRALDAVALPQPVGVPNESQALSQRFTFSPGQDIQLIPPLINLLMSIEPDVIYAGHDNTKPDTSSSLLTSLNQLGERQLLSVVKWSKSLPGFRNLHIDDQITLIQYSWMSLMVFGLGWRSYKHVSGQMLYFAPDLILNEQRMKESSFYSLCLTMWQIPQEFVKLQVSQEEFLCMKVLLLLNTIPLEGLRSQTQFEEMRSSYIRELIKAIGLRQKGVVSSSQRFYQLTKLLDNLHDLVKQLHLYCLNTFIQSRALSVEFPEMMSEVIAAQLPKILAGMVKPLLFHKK
The data set is described as follows: Progesterone receptor B radioligand binding assay. On the procedure:
The pHLIP ICG enzyme binding assays were performed by Eurofins Panlabs, Inc. according to standard assay protocols. The following enzymes were used in the binding assay with 2 µM of pHLIP ICG : acetyl cholinesterase; peptidase (angiotensin converting enzyme); ATPase (Na^+/K^+, pig heart); CTSG peptidase (cathepsin G); cyclooxygenases COX-1 and COX-2; monoamine oxidases MAO-A and MAO-B; phosphodiesterases PDE3 and PDE4D2; protein tyrosine kinase (insulin receptor); protein tyrosine kinase (LCK); protein serine/threonine kinase (PKC, non-selective); adenosine A1 and A2A; adenosine transporter; adrenergic α1A, α1B, α1D, α2A, α2B, β1 and β2; norepinephrine transporter (NET); androgen (testosterone); angiotensin AT1; bradykinin B2; calcium channels L-type (benzothiazepine, dihydropyridine, phenylalkylamine); calcium channel N-type; cannabinoid CB1 and CB2; chemokine CCR1; cholecystokinin CCK1 (CCKA) and CCK2 (CCKB); dopamine D1, D2L and D2S; dopamine transporter (DAT); endothelin ETA; estrogen ERα; GABA transporter; GABAAs (flunitrazepam, central; Ro-15-1788, hippocampus and chloride channel, TBOB); glucocorticoid; glutamate (AMPA, kainate, agonism NMDA, glycine NMDA, phencyclidine NMDA, polyamine NMDA, and mGlu5 metabotropic); glycine (strychnine-sensitive); histamine H1 and H2; chemokine CXCR2 (IL-8RB); cysteinyl leukotriene (CysLT1); melanocortin MC1 and MC4; muscarinic M1, M2, M3, and M4; tachykinin NK1; neuropeptide Y Y1; nicotinic acetylcholine α1 (bungarotoxin) and α3β4; opiate δ1 (OP1, DOP), κ (OP2, KOP), and μ (OP3, MOP); platelet activating factor (PAF); potassium channels (KATP and hERG); PPARγ; serotonin (5-hydroxytryptamine) 5-HT1A, 5-HT1B, 5-HT2A, 5-HT2B, 5-HT2C, and 5-HT3; serotonin transporter (SERT); sodium channel (site 2); vasopressin V1A; progesterone (PR-B). The most significant inhibitory effect of pHLIP ICG was observed on progesterone B and was followed by an additional study to identify IC50 values, which were determined by a non-linear least square regression analysis using MathIQTM (ID Business Solutions Ltd., UK). The Ki values were calculated by the equation from Cheng and Prusoff [Cheng, Y., Prusoff, W.H., Biochem. Pharmacol. 22:3099-3108, 1973] using the observed IC50 of pHLIP ICG , the concentration of radioligand employed in the assay, and the historical values for the KD of the ligand (Eurofins Panlabs data). The Hill coefficient (nH), defining the slope of the competitive binding curve, was calculated using MathIQTM. The IC50, Ki, and nH values were established for pHLIP ICG and compared to the known progesterone agonist, R-2050 (Figure S3).
Figure SI,3. […]

A short description of data set [2]: Peripheral blood micronucleus test in rats (GLP). Type of data set: in vivo, Sprague Dawley rats. The following applies: male rats, 10 mg/kg oral gavage twice, 24 hours apart. On the procedure: The objective of this GLP study performed at CRL was to determine the potential genotoxicity of pHLIP ICG when given by i.v. bolus injection to rats using the peripheral blood micronucleus test.
In order to determine the maximum tolerated dose, a dose-range finding test was performed prior to the main test, where male and female rats (3 animals/sex) were administered a single dose of pHLIP ICG by i.v. injection. The doses evaluated were 14 mg/kg and 25 mg/kg using 5% EtOH in PBS, pH 7.4 as the vehicle.
Blood was collected for micronuclei evaluation at 45 hours post-dose (Groups 3 to 7), and 69 hours post-dose (Groups 3 and 7). The proportion of immature erythrocytes among total erythrocytes in the peripheral blood (%RETs) and the percentage of micronucleated reticulocytes (%MN-RETs) in the NC group were within the laboratory historical negative control range. […] The results from both NC and PC groups confirmed the validity of the assay.

For data set [3] the following is noted: cited from earlier work. On the procedure: We carried out a comparative study of blood flow imaging in mice using ICG-Cys (ICG-maleimide conjugated with a Cys residue) and pHLIP ICG (2.5 nmol of each). […] The most widely used is the near-infrared emitting ICG, first approved for angiography and subsequently used in ophthalmology and elsewhere for imaging blood vessels[36]–[41]. […] If administered intraperitoneally, ICG is found in the nearest lymph nodes within 15 min, and in the regional lymph nodes within 1–2 h[44],[45]. The IV dose of ICG varies from 0.5 to 2.0 ...

Where only a bound is given, the exact number is not on record here.

One may read the Ki as the dissociation constant of the complex between target and ligand, obtained from inhibition or displacement. For orientation: IC50 means the concentration needed to halve the response being measured.

With `CCC(=O)[C@@]1(C)CC[C@H]2[C@@H]3CCC4=CC(=O)CCC4=C3CC[C@@]21C` [R-2050, reference compound], in data set [1] (Cheng-Prusoff from IC50, reference agonist, read-out: Ki progesterone receptor B), the Ki worked out at 0.26 nM. Besides, in data set [1] (radioligand binding, 20 hrs, reference agonist, read-out: IC50 progesterone receptor B), the IC50 turned out to be 0.33 nM.

In the case of `O=P1(N(CCCl)CCCl)NCCCO1` (stereo not drawn) [PC, cyclophosphamide monohydrate, reference compound], in data set [2], the “Micronuclei, positive control” value is recorded as “statistically significant increase in micronuclei”.

As for `CC1(C)C(/C=C/C=C/C=C/C=C2\N(CCCCS(=O)(=O)O)c3ccc4ccccc4c3C2(C)C)=[N+](CCCCS(=O)(=O)[O-])c2ccc3ccccc3c21` [ICG, indocyanine green], in data set [3] (administered intraperitoneally), the “Time to be found in the nearest lymph nodes” value was not above 15 min and the “Time to be found in the regional lymph nodes” value is 1 to 2 h. Moreover, the “Clearance from the blood” value in data set [3] (as contrast agent for imaging blood flow, no reference given) is “within a few minutes”. For the same molecule, in data set [3], the Half-life in blood was 2.5 min. The “Time of appearance in the bile after injection” value in data set [3] (cleared through the liver) is “about 8 min”. The Acute toxicity entry in data set [3] (high dose of 5 mg/kg) is given as “no acute toxicity has been observed”.
